Experimental data: US8178534B2, “cMET inhibitors” (Takeda Pharmaceutical Company Limited, priority 2008, dated 2012)

Legend:
EBC1 = assay: Inhibition of cell viability (MTS), EBC1; format: cell-based; settings: Homo sapiens, 96 hours incubation
Method: (§1) Cells were maintained at 37° C. in a humidified atmosphere containing 5%-8% CO2 following the instructions of the supplier (American Type Culture Collection (Rockville, Md.)). Inhibition of cell viability was determined for a panel of tumor cell lines (MKN45, EBC1 and A549), using the soluble tetrazolium salt, MTS (Promega, Madison, Wis.). Cells were seeded at 2,000-7,500 cells/well in 96-well tissue culture plates and were allowed to attach for approximately 24 hours prior to addition of compounds or DMSO vehicle. […] Cells were treated in duplicate with test compounds. Compounds were serially diluted (1:2.5) from column 1 to 11 and column 12 contained DMSO vehicle. Compounds were diluted into cell growth medium then compound solution was added to cells. Equal amounts of DMSO were added to cells (final concentration is 0.5%). After background correction and normalization against DMSO-treated cells, EC50 values were calculated using non-linear curve-fitting of the cell viability as a function of compound concentration. The MKN45 and EBC1 cell lines contain high levels of phospho-Met and are dependent on cMET for proliferation, whereas the A549 line is used as negative control.
(§2) EC50 values may be calculated by non-linear curve fitting of the compound concentrations and fluorescence intensities to the standard EC50 equation.

MKN45 = assay: Inhibition of cell viability (MTS), MKN45; format: cell-based; settings: Homo sapiens, 96 hours incubation
Method: as §1, §2

[1] = biological target: T1, cMET enzyme (amino acids 1023-1360) (Homo sapiens, UniProt P08581); assay: Determination of inhibition of cMET (capillary electrophoresis, phosphorylated peptide product); format: biochemical; settings: 1.2 nM cMET, 50 μM ATP, 2 μM FL-2 peptide, 2 hours room temperature
T1 construct: The cMET enzyme (amino acids 1023-1360) nominally at 24 μM was held at −80° C. until use; His tag (N, cleaved yes); made in house; host or cells: Sf9 cells
T1 sequence (P08581 1023-1360): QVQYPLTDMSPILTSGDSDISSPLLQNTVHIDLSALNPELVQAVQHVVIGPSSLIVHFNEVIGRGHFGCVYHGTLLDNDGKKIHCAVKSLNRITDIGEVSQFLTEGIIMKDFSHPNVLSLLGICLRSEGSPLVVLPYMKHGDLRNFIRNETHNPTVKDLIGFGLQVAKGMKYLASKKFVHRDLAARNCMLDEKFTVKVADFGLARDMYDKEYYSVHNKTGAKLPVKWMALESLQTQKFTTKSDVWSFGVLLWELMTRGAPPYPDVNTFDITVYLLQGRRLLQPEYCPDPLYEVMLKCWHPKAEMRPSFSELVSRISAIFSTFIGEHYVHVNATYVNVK
Method: The inhibitory property of a compound relative to cMET catalysis was determined by use of capillary electrophoresis with fluorescence quantification of a phosphorylated peptide product for cMET. The cMET enzyme (amino acids 1023-1360) nominally at 24 μM was held at −80° C. until use, in a buffer containing 25 mM Tris-HCl pH 8.5, 150 mM NaCl, 3 mM DTT and 10% glycerol. […] Following purification, the tag was removed and enzyme concentrated. […] To activate the enzyme fully, frozen cMET was thawed quickly and activated with the addition of assay buffer (50 mM HEPES pH 7.5, 10 mM NaCl, 10 mM MgCl2, 0.01% Brij® 35), 1.25 mM ATP, 5 mM MgCl2 and 5 mM DTT at a cMET concentration of 2.4 μM followed by a 30 minute incubation at room temperature. […] Next, cMET enzyme (1.2 nM final) was added and the system incubated at room temperature for 20 minutes. Catalysis was initiated by the addition of ATP (50 μM final). Assays were incubated at room temperature for 2 hours then quenched by the addition of EDTA. Phosphorylated peptide product was quantified by monitoring fluorescence during capillary electrophoresis with Caliper LifeSciences LabChip 3000 under the following settings: base pressure=−0.1 psi, screen pressure=−1.2 psi, downstream voltage=−500 V, upstream voltage=−2300 V, chip type=TC372. The elution buffer was identical to the assay buffer except for the absence of DTT, FL-2 and ATP and the addition of 0.1% coating reagent (Caliper). […] Peak height was quantified and used to determine enzyme velocities.
IC50 values were calculated by non-linear least squares curve fitting of the standard IC50 equation to background-corrected cMET velocity versus compound concentration.

A549 = assay: Inhibition of cell viability (MTS), A549 (negative control line); format: cell-based; settings: Homo sapiens, A549 cells (negative control), 96 hours incubation
Method: as §1, §2

Compound	EC50 (EBC1; EBC-1, 96 h, EBC1 cells)	EC50 (MKN45; MKN-45, 96 h, MKN45 cells)	IC50 [1]	EC50 (A549; A549, 96 h)	EC50 (EBC1; EBC-1, EBC1 cells)	EC50 (MKN45; MKN-45, MKN45 cells)	EC50 (A549)
O=C(Nc1cn2nc(Sc3nnc4ccc(-c5ccc(N6CCNCC6)cc5)cn34)ccc2n1)C1CC1 [Compound 36, N-(6-(6-(4-(piperazin-1-yl)phenyl)-[1,2,4]triazolo[4,3-a]pyridin-3-ylthio)imidazo[1,2-b]pyridazin-2-yl)cyclopropanecarboxamide]	35 to 99 nM	250 to 630 nM	< 30 nM	> 50000 nM	–	–	–
O=C(Nc1cn2nc(Sc3nnc4ccc(C#CCO)cn34)ccc2n1)C1CC1 [Compound 37, N-(6-(6-(3-hydroxyprop-1-ynyl)-[1,2,4]triazolo[4,3-a]pyridin-3-ylthio)imidazo[1,2-b]pyridazin-2-yl)cyclopropanecarboxamide]	100 to 199 nM	250 to 630 nM	30 to 59 nM	> 50000 nM	–	–	–
O=C(Nc1cn2nc(Sc3nnc4ccc(-c5nn[nH]n5)cn34)ccc2n1)C1CC1 [Compound 38, N-(6-(6-(2H-tetrazol-5-yl)-[1,2,4]triazolo[4,3-a]pyridin-3-ylthio)imidazo[1,2-b]pyridazin-2-yl)cyclopropanecarboxamide]	> 200 nM	> 630 nM	> 100 nM	> 50000 nM	–	–	–
COCc1nc(-c2ccc3nnc(Sc4ccc5nc(NC(=O)C6CC6)cn5n4)n3c2)no1 [Compound 39, N-(6-(6-(5-(methoxymethyl)-1,2,4-oxadiazol-3-yl)-[1,2,4]triazolo[4,3-a]pyridin-3-ylthio)imidazo[1,2-b]pyridazin-2-yl)cyclopropanecarboxamide]	35 to 99 nM	100 to 249 nM	60 to 100 nM	600 to 1600 nM	–	–	–
CC(C)(O)c1ccc2nnc(Sc3ccc4nc(NC(=O)C5CC5)cn4n3)n2c1 [Compound 40, N-(6-(6-(2-hydroxypropan-2-yl)-[1,2,4]triazolo[4,3-a]pyridin-3-ylthio)imidazo[1,2-b]pyridazin-2-yl)cyclopropanecarboxamide]	–	–	> 100 nM	–	> 200 nM	> 630 nM	> 50000 nM
O=C(Nc1cn2nc(Sc3nnc4ccc(C(F)(F)F)cn34)ccc2n1)C1CC1 [Compound 41, N-(6-(6-(trifluoromethyl)-[1,2,4]triazolo[4,3-a]pyridin-3-ylthio)imidazo[1,2-b]pyridazin-2-yl)cyclopropanecarboxamide]	35 to 99 nM	100 to 249 nM	60 to 100 nM	8000 to 25000 nM	–	–	–
Cc1ccc2nnc(Sc3ccc4nc(NC(=O)C5CC5)cn4n3)n2c1 [Compound 42, N-(6-(6-methyl-[1,2,4]triazolo[4,3-a]pyridin-3-ylthio)imidazo[1,2-b]pyridazin-2-yl)cyclopropanecarboxamide]	35 to 99 nM	100 to 249 nM	60 to 100 nM	> 50000 nM	–	–	–
O=C(Nc1cn2nc(Sc3nnc4ccc(-c5cccc(F)c5)cn34)ccc2n1)C1CC1 [Compound 44, N-(6-(6-(3-fluorophenyl)-[1,2,4]triazolo[4,3-a]pyridin-3-ylthio)imidazo[1,2-b]pyridazin-2-yl)cyclopropanecarboxamide]	< 35 nM	< 100 nM	< 30 nM	600 to 1600 nM	–	–	–
O=C(Nc1cn2nc(C(F)(F)c3nnc4ccc(-c5cnoc5)cn34)ccc2n1)C1CC1 [Compound 46, N-(6-(difluoro(6-(isoxazol-4-yl)-[1,2,4]triazolo[4,3-a]pyridin-3-yl)methyl)imidazo[1,2-b]pyridazin-2-yl)cyclopropanecarboxamide]	60 to 100 nM	60 to 100 nM	30 to 59 nM	> 50000 nM	–	–	–
O=C(Nc1cn2nc(C(F)(F)c3nnc4ccc(-c5cnn(CCO)c5)cn34)ccc2n1)C1CC1 [Compound 47, N-(6-(difluoro(6-(1-(2-hydroxyethyl)-1H-pyrazol-4-yl)-[1,2,4]triazolo[4,3-a]pyridin-3-yl)methyl)imidazo[1,2-b]pyridazin-2-yl)cyclopropanecarboxamide]	< 30 nM	< 30 nM	< 30 nM	> 50000 nM	–	–	–
C[C@@H](c1ccc2nc(NC(=O)C3CC3)cn2n1)c1nnc2ccc(-c3cnn(C)c3)cn12 [Compound 50, (S)—N-(6-(1-(6-(1-methyl-1H-pyrazol-4-yl)-[1,2,4]triazolo[4,3-a]pyridin-3-yl)ethyl)imidazo[1,2-b]pyridazin-2-yl)cyclopropanecarboxamide]	< 30 nM	30 to 59 nM	< 30 nM	> 50000 nM	–	–	–
C[C@H](c1ccc2nc(NC(=O)C3CC3)cn2n1)c1nnc2ccc(-c3cnn(C)c3)cn12 [Compound 51, (R)—N-(6-(1-(6-(1-methyl-1H-pyrazol-4-yl)-[1,2,4]triazolo[4,3-a]pyridin-3-yl)ethyl)imidazo[1,2-b]pyridazin-2-yl)cyclopropanecarboxamide]	> 100 nM	> 100 nM	> 100 nM	> 50000 nM	–	–	–
CC(c1ccc2nc(NC(=O)C3CC3)cn2n1)c1nnc2ccccn12 (stereo not shown) [Compound 52, N-(6-(1-([1,2,4]triazolo[4,3-a]pyridin-3-yl)ethyl)imidazo[1,2-b]pyridazin-2-yl)cyclopropanecarboxamide]	> 100 nM	> 100 nM	> 100 nM	> 50000 nM	–	–	–
Cc1ccc2nnc(C(C)c3ccc4nc(NC(=O)C5CC5)cn4n3)n2c1 (stereo not shown) [Compound 53, N-(6-(1-(6-methyl-[1,2,4]triazolo[4,3-a]pyridin-3-yl)ethyl)imidazo[1,2-b]pyridazin-2-yl)cyclopropanecarboxamide]	250 to 630 nM	250 to 630 nM	250 to 630 nM	> 50000 nM	–	–	–
CC(c1ccc2nc(NC(=O)C3CC3)cn2n1)c1nnc2ccc(-c3ccc(F)cc3)cn12 (stereo not shown) [Compound 55, N-(6-(1-(6-(4-fluorophenyl)-[1,2,4]triazolo[4,3-a]pyridin-3-yl)ethyl)imidazo[1,2-b]pyridazin-2-yl)cyclopropanecarboxamide]	< 30 nM	< 30 nM	< 30 nM	> 50000 nM	–	–	–
COc1ccc(-c2ccc3nnc(C(C)c4ccc5nc(NC(=O)C6CC6)cn5n4)n3c2)cc1 (stereo not shown) [Compound 56, N-(6-(1-(6-(4-methoxyphenyl)-[1,2,4]triazolo[4,3-a]pyridin-3-yl)ethyl)imidazo[1,2-b]pyridazin-2-yl)cyclopropanecarboxamide]	< 30 nM	< 30 nM	< 30 nM	> 50000 nM	–	–	–
CC(c1ccc2nc(NC(=O)C3CC3)cn2n1)c1nnc2ccc(-c3cccc(C#N)c3)cn12 (stereo not shown) [Compound 57, N-(6-(1-(6-(3-cyanophenyl)-[1,2,4]triazolo[4,3-a]pyridin-3-yl)ethyl)imidazo[1,2-b]pyridazin-2-yl)cyclopropanecarboxamide]	< 30 nM	< 30 nM	< 30 nM	> 50000 nM	–	–	–
CNC(=O)c1ccc(-c2ccc3nnc(C(C)c4ccc5nc(NC(=O)C6CC6)cn5n4)n3c2)cc1F (stereo not shown) [Compound 58, 4-(3-(1-(2-(cyclopropanecarboxamido)imidazo[1,2-b]pyridazin-6-yl)ethyl)-[1,2,4]triazolo[4,3-a]pyridin-6-yl)-2-fluoro-N-methylbenzamide]	< 30 nM	< 30 nM	< 30 nM	> 50000 nM	–	–	–
CC(c1ccc2nc(NC(=O)C3CC3)cn2n1)c1nnc2ccc(-c3cccc(S(C)(=O)=O)c3)cn12 (stereo not shown) [Compound 59, N-(6-(1-(6-(3-(methylsulfonyl)phenyl)-[1,2,4]triazolo[4,3-a]pyridin-3-yl)ethyl)imidazo[1,2-b]pyridazin-2-yl)cyclopropanecarboxamide]	60 to 100 nM	100 to 249 nM	< 30 nM	> 50000 nM	–	–	–
